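Five concentrations, 48 hours, 96-well plates. TGI marks complete inhibition of growth.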
Key:
Assay in all cases: DTP human tumour cell line panel, 48 h
786-0 renal = tested on: 786-0 renal
A498 renal = tested on: A498 renal
A549 NSCLC = tested on: A549 NSCLC
ACHN renal = tested on: ACHN renal
BT-549 breast = tested on: BT-549 breast
CAKI-1 renal = tested on: CAKI-1 renal
CCRF-CEM leukemia = tested on: CCRF-CEM leukemia
COLO 205 colon = tested on: COLO 205 colon
DU-145 prostate = tested on: DU-145 prostate
EKVX NSCLC = tested on: EKVX NSCLC
HCC-2998 colon = tested on: HCC-2998 colon
HCT-116 colon = tested on: HCT-116 colon
HCT-15 colon = tested on: HCT-15 colon
HL-60(TB) leukemia = tested on: HL-60(TB) leukemia
HOP-62 NSCLC = tested on: HOP-62 NSCLC
HOP-92 NSCLC = tested on: HOP-92 NSCLC
HT29 colon = tested on: HT29 colon
IGROV1 ovarian = tested on: IGROV1 ovarian
K-562 leukemia = tested on: K-562 leukemia
KM12 colon = tested on: KM12 colon
LOX IMVI melanoma = tested on: LOX IMVI melanoma
M14 melanoma = tested on: M14 melanoma
MCF7 breast = tested on: MCF7 breast
MDA-MB-231 breast = tested on: MDA-MB-231 breast
MDA-MB-435 = tested on: MDA-MB-435
MDA-N = tested on: MDA-N
MOLT-4 leukemia = tested on: MOLT-4 leukemia
NCI-H226 lung = tested on: NCI-H226 lung
NCI-H23 lung = tested on: NCI-H23 lung
NCI-H460 lung = tested on: NCI-H460 lung
NCI-H522 lung = tested on: NCI-H522 lung
NCI/ADR-RES ovarian = tested on: NCI/ADR-RES ovarian
OVCAR-3 ovarian = tested on: OVCAR-3 ovarian
OVCAR-4 ovarian = tested on: OVCAR-4 ovarian
OVCAR-5 ovarian = tested on: OVCAR-5 ovarian
OVCAR-8 ovarian = tested on: OVCAR-8 ovarian
PC-3 prostate = tested on: PC-3 prostate
RXF 393 renal = tested on: RXF 393 renal
SF-268 CNS = tested on: SF-268 CNS
SF-295 CNS = tested on: SF-295 CNS
SF-539 CNS = tested on: SF-539 CNS
SK-MEL-2 melanoma = tested on: SK-MEL-2 melanoma
SK-MEL-28 melanoma = tested on: SK-MEL-28 melanoma
SK-MEL-5 melanoma = tested on: SK-MEL-5 melanoma
SK-OV-3 ovarian = tested on: SK-OV-3 ovarian
SN12C renal = tested on: SN12C renal
SNB-19 CNS = tested on: SNB-19 CNS
SNB-75 CNS = tested on: SNB-75 CNS
SR leukemia = tested on: SR leukemia
SW-620 colon = tested on: SW-620 colon
TK-10 renal = tested on: TK-10 renal
U251 CNS = tested on: U251 CNS
UACC-257 melanoma = tested on: UACC-257 melanoma
UACC-62 melanoma = tested on: UACC-62 melanoma
UO-31 renal = tested on: UO-31 renal
HS 578T breast = tested on: HS 578T breast
MALME-3M melanoma = tested on: MALME-3M melanoma
T-47D breast = tested on: T-47D breast

Question: Which TGI (786-0 renal) does the source give for `Cc1csc(-n2c(C)nc3cc(Cl)ccc3c2=O)n1` here?
Answer: Its TGI is greater than 100 µM.

Question: What about the TGI (A498 renal) of the same compound?
Answer: The TGI was greater than 100 µM.

Question: And the TGI (A549 NSCLC)?
Answer: The TGI was greater than 100 µM.

Question: And the TGI (ACHN renal)?
Answer: Its TGI is greater than 100 µM.

Question: What about the TGI (BT-549 breast) of the same compound?
Answer: The TGI was greater than 100 µM.

Question: And the TGI (CAKI-1 renal)?
Answer: The TGI was greater than 100 µM.

Question: And the TGI (CCRF-CEM leukemia)?
Answer: Its TGI is greater than 100 µM.

Question: And the TGI (COLO 205 colon)?
Answer: Its TGI is greater than 100 µM.

Question: And the TGI (DU-145 prostate)?
Answer: Its TGI is greater than 100 µM.

Question: And the TGI (EKVX NSCLC)?
Answer: Its TGI is 81.4 µM.

Question: What about the TGI (HCC-2998 colon) of the same compound?
Answer: The TGI was greater than 100 µM.

Question: And the TGI (HCT-116 colon)?
Answer: Its TGI is greater than 100 µM.

Question: What about the TGI (HCT-15 colon) of the same compound?
Answer: Its TGI is greater than 100 µM.

Question: And the TGI (HL-60(TB) leukemia)?
Answer: Its TGI is greater than 100 µM.

Question: And the TGI (HOP-62 NSCLC)?
Answer: The TGI was greater than 100 µM.

Question: And the TGI (HOP-92 NSCLC)?
Answer: Its TGI is greater than 100 µM.

Question: What about the TGI (HT29 colon) of the same compound?
Answer: The TGI was greater than 100 µM.

Question: And the TGI (IGROV1 ovarian)?
Answer: Its TGI is greater than 100 µM.

Question: What about the TGI (K-562 leukemia) of the same compound?
Answer: Its TGI is greater than 100 µM.

Question: And the TGI (KM12 colon)?
Answer: The TGI was greater than 100 µM.

Question: And the TGI (LOX IMVI melanoma)?
Answer: The TGI was greater than 100 µM.

Question: And the TGI (M14 melanoma)?
Answer: Its TGI is greater than 100 µM.

Question: What about the TGI (MCF7 breast) of the same compound?
Answer: The TGI was greater than 100 µM.

Question: And the TGI (MDA-MB-231 breast)?
Answer: The TGI was greater than 100 µM.

Question: What about the TGI (MDA-MB-435) of the same compound?
Answer: The TGI was greater than 100 µM.

Question: And the TGI (MDA-N)?
Answer: Its TGI is greater than 100 µM.

Question: What about the TGI (MOLT-4 leukemia) of the same compound?
Answer: Its TGI is greater than 100 µM.

Question: What about the TGI (NCI-H226 lung) of the same compound?
Answer: Its TGI is greater than 100 µM.

Question: What about the TGI (NCI-H23 lung) of the same compound?
Answer: Its TGI is greater than 100 µM.

Question: And the TGI (NCI-H460 lung)?
Answer: The TGI was greater than 100 µM.

Question: What about the TGI (NCI-H522 lung) of the same compound?
Answer: The TGI was 60.6 µM.

Question: What about the TGI (NCI/ADR-RES ovarian) of the same compound?
Answer: The TGI was greater than 100 µM.

Question: What about the TGI (OVCAR-3 ovarian) of the same compound?
Answer: The TGI was greater than 100 µM.

Question: What about the TGI (OVCAR-4 ovarian) of the same compound?
Answer: Its TGI is greater than 100 µM.

Question: And the TGI (OVCAR-5 ovarian)?
Answer: The TGI was greater than 100 µM.

Question: What about the TGI (OVCAR-8 ovarian) of the same compound?
Answer: The TGI was greater than 100 µM.

Question: What about the TGI (PC-3 prostate) of the same compound?
Answer: The TGI was greater than 100 µM.

Question: What about the TGI (RXF 393 renal) of the same compound?
Answer: The TGI was greater than 100 µM.

Question: And the TGI (SF-268 CNS)?
Answer: Its TGI is greater than 100 µM.

Question: What about the TGI (SF-295 CNS) of the same compound?
Answer: The TGI was greater than 100 µM.

Question: And the TGI (SF-539 CNS)?
Answer: The TGI was greater than 100 µM.

Question: What about the TGI (SK-MEL-2 melanoma) of the same compound?
Answer: Its TGI is greater than 100 µM.

Question: And the TGI (SK-MEL-28 melanoma)?
Answer: Its TGI is greater than 100 µM.

Question: And the TGI (SK-MEL-5 melanoma)?
Answer: Its TGI is greater than 100 µM.

Question: And the TGI (SK-OV-3 ovarian)?
Answer: Its TGI is greater than 100 µM.

Question: And the TGI (SN12C renal)?
Answer: Its TGI is greater than 100 µM.

Question: And the TGI (SNB-19 CNS)?
Answer: Its TGI is greater than 100 µM.

Question: And the TGI (SNB-75 CNS)?
Answer: Its TGI is greater than 100 µM.

Question: What about the TGI (SR leukemia) of the same compound?
Answer: The TGI was greater than 100 µM.

Question: And the TGI (SW-620 colon)?
Answer: Its TGI is greater than 100 µM.

Question: And the TGI (TK-10 renal)?
Answer: The TGI was greater than 100 µM.

Question: And the TGI (U251 CNS)?
Answer: Its TGI is greater than 100 µM.

Question: And the TGI (UACC-257 melanoma)?
Answer: Its TGI is greater than 100 µM.

Question: And the TGI (UACC-62 melanoma)?
Answer: The TGI was greater than 100 µM.

Question: And the TGI (UO-31 renal)?
Answer: The TGI was greater than 100 µM.

Question: How did the TGI (786-0 renal) turn out when `CCCCCCCCCCCCCCCC1(OC)C[N+](C)(C)CCO1` (stereo not given) was run?
Answer: The TGI was 2.05 µM.

Question: And the TGI (A498 renal)?
Answer: The TGI was 67.5 µM.

Question: And the TGI (A549 NSCLC)?
Answer: The TGI was 3.45 µM.

Question: What about the TGI (ACHN renal) of the same compound?
Answer: The TGI was 5.8 µM.

Question: What about the TGI (COLO 205 colon) of the same compound?
Answer: Its TGI is 2.58 µM.

Question: What about the TGI (DU-145 prostate) of the same compound?
Answer: The TGI was 5.9 µM.

Question: And the TGI (EKVX NSCLC)?
Answer: The TGI was 5.76 µM.

Question: And the TGI (HCC-2998 colon)?
Answer: Its TGI is 6.18 µM.

Question: And the TGI (HCT-116 colon)?
Answer: The TGI was 3.38 µM.

Question: What about the TGI (HCT-15 colon) of the same compound?
Answer: The TGI was 28.9 µM.

Question: And the TGI (HS 578T breast)?
Answer: Its TGI is 7.22 µM.

Question: And the TGI (HT29 colon)?
Answer: Its TGI is 2.56 µM.

Question: And the TGI (IGROV1 ovarian)?
Answer: The TGI was 3.16 µM.

Question: What about the TGI (KM12 colon) of the same compound?
Answer: The TGI was 1.96 µM.

Question: And the TGI (M14 melanoma)?
Answer: The TGI was 3.13 µM.

Question: And the TGI (MALME-3M melanoma)?
Answer: Its TGI is 4.7 µM.

Question: And the TGI (MCF7 breast)?
Answer: Its TGI is 0.901 µM.

Question: What about the TGI (MDA-MB-231 breast) of the same compound?
Answer: Its TGI is 4.8 µM.

Question: What about the TGI (MDA-MB-435) of the same compound?
Answer: The TGI was 3.63 µM.

Question: And the TGI (MDA-N)?
Answer: Its TGI is 4.99 µM.

Question: What about the TGI (NCI-H226 lung) of the same compound?
Answer: Its TGI is 3.6 µM.

Question: What about the TGI (NCI-H23 lung) of the same compound?
Answer: Its TGI is 2.81 µM.

Question: And the TGI (NCI-H460 lung)?
Answer: Its TGI is 5.57 µM.

Question: And the TGI (NCI/ADR-RES ovarian)?
Answer: The TGI was 41.7 µM.

Question: And the TGI (OVCAR-4 ovarian)?
Answer: Its TGI is 5.96 µM.

Question: And the TGI (OVCAR-5 ovarian)?
Answer: The TGI was 6.08 µM.

Question: And the TGI (PC-3 prostate)?
Answer: Its TGI is 6.21 µM.

Question: What about the TGI (RXF 393 renal) of the same compound?
Answer: Its TGI is 2.39 µM.

Question: And the TGI (SF-268 CNS)?
Answer: Its TGI is 5.04 µM.

Question: And the TGI (SF-539 CNS)?
Answer: The TGI was 3.49 µM.

Question: And the TGI (SK-MEL-2 melanoma)?
Answer: The TGI was 7.63 µM.

Question: What about the TGI (SK-MEL-28 melanoma) of the same compound?
Answer: Its TGI is 6.33 µM.

Question: And the TGI (SK-OV-3 ovarian)?
Answer: The TGI was 21.8 µM.

Question: And the TGI (SN12C renal)?
Answer: The TGI was 3.94 µM.

Question: What about the TGI (SNB-75 CNS) of the same compound?
Answer: The TGI was 0.445 µM.

Question: What about the TGI (SW-620 colon) of the same compound?
Answer: The TGI was 26.4 µM.

Question: What about the TGI (T-47D breast) of the same compound?
Answer: Its TGI is 33.6 µM.

Question: What about the TGI (TK-10 renal) of the same compound?
Answer: The TGI was 5.33 µM.

Question: And the TGI (UACC-257 melanoma)?
Answer: The TGI was 4.85 µM.

Question: And the TGI (UACC-62 melanoma)?
Answer: The TGI was 7.64 µM.

Reference: PubChem BioAssay (NCI)
